Measured values reported in EP1537858A1, “Drug delivery vehicles and uses thereof” (Vectron Therapeutics AG, priority 2003, dated 2005).

Legend:
[1] = Pharmacokinetics and organ accumulation of mitoxantrone after i.v. injection (HPLC); assay type: in vivo; settings: i.v. tail vein, nude mice, blood mitoxantrone by HPLC
Experimental: AVE95-MXR liposomes were injected i.v. into the tail veins of nude mice and blood concentration of mitoxantrone was determined by HPLC at varying time points. In this experiment we included unencapsulated mitoxantrone. AVE95-MXR caused a prolonged serum residence time of mitoxantrone (50% value = 110 min) compared to unencapsulated mitoxantrone which was rapidly cleared from circulation (50% value = < 3 min) (Fig. 8). […] Mitoxantrone concentrations in the liver and spleen were similar to free mitoxantrone.

[2] = tested on: C26 murine colon carcinoma; experiment: Pharmacodynamics of mitoxantrone liposomes in C26 tumor model; assay type: in vivo, nude mice; settings: mitoxantrone dose of 4 mg/kg at days 0, 2 and 5
Experimental: Efficacy of AVE95-MRX was analyzed in a C26 murine colon carcinoma model. For this purpose tumor cells were injected subcutaneously into nude mice. After tumors had reached a size of approximately 50-100 mm^3, tumor-bearing mice were treated with mitoxantrone-loaded liposomes injecting a mitoxantrone dose of […] or 4 mg/kg body weight at days 0, 2 and 5. Unencapsulated mitoxantrone was included in these experiments. […] However, at this dose tumor growth was further reduced for AVE95-encapsulated mitoxantrone compared to free mitoxantrone (Fig. 9). This improved efficacy compared to free mitoxantrone was also observed at a mitoxantrone concentration of […].

[3] = Pharmacokinetics of doxorubicin in blood after i.v. injection (HPLC); assay type: in vivo; settings: i.v. tail vein, nude mice, blood doxorubicin by HPLC
Experimental: AVE9-dox and AVE95-dox were injected i.v. into the tail veins of nude mice and blood concentration of doxorubicin was determined by HPLC at varying time points. In this experiment we included unencapsulated doxorubicin as well as doxorubicin encapsulated into pegylated "stealth liposomes" (Doxil®). Compared to AVE9-dox AVE95-dox caused a prolonged serum residence time of doxorubicin (50% value of 11 min for AVE9-dox versus 23 min for AVE95-dox). Unencapsulated dox was rapidly cleared from the circulation (50% value = < 3 min). In contrast, after injection of Doxil® more than 50% of initial doxorubicin was present in the blood after 6 hours (Fig. 4). […] Doxorubicin concentrations in the liver and spleen were increased 3-fold after applying AVE95-dox compared to free doxorubicin.

[4] = tested on: C26 murine colon carcinoma; experiment: Pharmacodynamics of doxorubicin liposomes in C26 tumor model; assay type: in vivo, nude mice
Experimental: For further studies pharmacodynamic experiments in a C26 murine colon carcinoma model were performed. For this purpose tumor cells were injected subcutaneously into nude mice. After tumors had reached a size of approximately 50-100 mm^3 tumor-bearing mice were treated with doxorubicin-loaded liposomes injecting a doxorubicin dose of 4 mg/kg body weight at days 1, 3 and 6.
In a first experiment AVE9-dox and AVE95-dox (see example 10) were compared to unencapsulated doxorubicin. In this experiment we observed reduced tumor growth and a prolonged survival time for animals treated with AVE95-dox compared to animals treated with AVE9-dox or free doxorubicin. […] The difference between free doxorubicin and AVE95-dox at day 12 was statistically significant (p = 0.05). This was also reflected by the mean survival time which was 20 days for AVE95-dox treated animals, 16 days for AVE9-dox treated animals, 14 days for doxorubicin-treated animals, and 12 days for untreated animals.
In a second experiment free doxorubicin was compared to AVE95-dox, when administered either at 4 or at 8 mg/kg body weight to C26-tumor-bearing mice. […] In contrast, tumor growth was further reduced using 8 mg/kg AVE95-dox compared to […] AVE95-dox.
In a third experiment AVE95-dox was compared to Doxil® for the treatment of C26 tumors applying a dose of 4 mg/kg.
In a final set of experiments, AVE95-dox liposomes were compared to a AVE95-based formulation containing varying sphingomyelin concentrations. Firstly, AVE95-dox was compared to the same formulation in which sphingomyelin was substituted by phosphatidylcholine (AVE95-0SM-dox). […] Secondly, AVE95-dox was compared to liposomes consisting of 50 mol% cholesterol, 30 mol% sphingomyelin and 20 mol% phosphatidylcholine. Thus, this formulation contained the same cholesterol concentration but approximately twice as much sphingomyelin as AVE95 liposomes.

Row | Compound | 50% value (serum residence time of mitoxantrone) [1] [min] | inhibition of tumor growth [2] | 50% value (serum residence time of doxorubicin) [3] [min] | tumor growth compared to untreated control animals ([4]; 4 mg/kg at days 1, 3 and 6, first experiment) | lethality ([4]; at 8 mg/ml (so in the source), C26-tumor-bearing mice) | mean survival time ([4]; doxorubicin 4 mg/kg body weight at days 1, 3 and 6, first experiment) [days] | tumor growth at 8 mg/kg compared to 4 mg/kg ([4]; second experiment, 4 or 8 mg/kg body weight)
1 | O=C1c2c(O)ccc(O)c2C(=O)c2c(NCCNCCO)ccc(NCCNCCO)c21 [mitoxantrone, Mitoxantrone] | < 3 | strong inhibition of tumor growth | – | – | – | – | –
2 | COc1cccc2c1C(=O)c1c(O)c3c(c(O)c1C2=O)C[C@@](O)(C(=O)CO)C[C@@H]3O[C@H]1C[C@H](N)[C@H](O)[C@H](C)O1 [doxorubicin] | – | – | < 3 | reduced tumor growth compared to untreated control animals | increased lethality | 14 | No differences in tumor growth
